Results taken from patent US20130217640A1 (priority 2010, published 2013).
Converted amounts (≈) assume the structure as drawn. Blank lines part the entries; values can stand above or below the molecule they belong to.

Experiments:
[1] = Pharmacokinetics after intravenous administration: pro-drug and released acetaminophen in plasma or blood; format: in vivo, male Sprague-Dawley rats; conditions: for AUC of the pro-drug (in words) / half-life of the pro-drug (in words) / half-life: target dose 66.3 μmol/Kg, Table 4; for half-life: male, Sprague-Dawley, plasma, 66.3 umol/kg, read-out: half life (t1/2) of the pro-drug
[2] = Solution stability study at three pD's in phosphate buffered D2O, monitored by 1H NMR; format: physicochemical; conditions: 23° C.; for change in 1H NMR spectra: after 167 days, pD 5.0, 6.0, 7.0 in D2O; for stability in solution (in words): pD 5.0, 6.0 and 7.0, phosphate buffered D2O, protected from light
Experimental: 10 mL (11.07 g) D2O was placed in 3 separate vials with a stir bar and 0.002 moles (0.272 g) monobasic potassium phosphate (KH2PO4) was added to each. With the pD metered, NaOD/D2O was added drop-wise to each to adjust the pD's to 5.0, 6.0, and 7.0. Each of these solutions was gently boiled before use. Thus each vial contained […] phosphate buffered solution. […] The sample was sterilized by heating for 10 seconds, and after it had cooled down to ambient temperature (about 1 minute), 0.3 mL of one of the 0.2 mM 3 buffered solutions was added. The 0.6 mL sample was then placed in a sterilized NMR tube and the tube sealed and labeled. Each of the samples was stored at 23° C. protected from the light and monitored by ^1H NMR (64 scans for each sample) periodically.

[3] = Water solubility of the analogs (saturated D2O solution, 1H NMR against DSS standard); format: physicochemical; conditions: for water solubility (in words): D2O, Table 1
Experimental: The method use involved stirring the sample in D2O for a period of 3 days, followed by filtration using a 0.2μ syringe filter. A measured volume of this saturated solution was diluted with a standard solution of DSS in D2O, and a ^1H NMR was taken. Integration of the DSS peaks compared to that of the analog would allow for the determination of its concentration, and thus the concentration of the saturated solution.

AUC of the pro-drug (in words) ([1]; rat, intravenous): high AUC values
half-life of the pro-drug (in words) ([1]; rat, intravenous): relatively high half-lives
SMILES: CC(=O)Nc1ccc(O[C@H]2O[C@H](C)[C@@H](O)[C@H](O)[C@@H]2O)cc1 [Compound 23, 1-(4′-acetamidophenoxy)-6-deoxymannose]

change in 1H NMR spectra [2]: no change
water solubility (in words) [3]: highest solubility of all of the analogs
SMILES: CC(=O)Nc1ccc(O[C@H]2O[C@H](CO)[C@@H](OC3O[C@H](CO)[C@@H](O)[C@H](O)[C@H]3O)[C@H](O)[C@@H]2O)cc1 (stereo partly drawn) [Compound 5, 1-(4-acetaminophenoxy) 2-epi maltose]

change in 1H NMR spectra [2]: no change
water solubility ([3]; stirred in D2O for 3 days, filtered 0.2μ, 1H NMR integration vs DSS): 13 mg/mL (≈ 86 mM)
SMILES: CC(=O)Nc1ccc(O)cc1 [acetaminophen, reference compound]

AUC of the pro-drug (in words) ([1]; rat, intravenous): high AUC values
half-life of the pro-drug (in words) ([1]; rat, intravenous): relatively high half-lives
SMILES: CC(=O)Nc1ccc(O[C@H]2O[C@H](COC(=O)CCC(=O)O)[C@@H](O)[C@H](O)[C@@H]2O)cc1 [Compound 20]

water solubility (in words) [3]: excellent solubility
SMILES: CCCC(=O)OC[C@H]1O[C@H](Oc2ccc(NC(C)=O)cc2)C=C[C@@H]1O [Compound 16, 1-(4′-acetamidophenoxy)-6-O-butyryl-2,3-dideoxy 2,3-didehydro glucose]

stability in solution (in words) [2]: least stable to all of the pD's
SMILES: CC(=O)Nc1ccc(O[C@@H]2C=C[C@H](O)[C@@H](CO)O2)cc1 [Compound 1, N-(4-((2R,5S,6R)-5-hydroxy-6-(hydroxymethyl)-5,6-dihydro-2H-pyran-2-yloxy)phenyl)acetamide, reference compound]

half-life ([1]; rat, intravenous): < 1 h
AUC of the pro-drug (in words) ([1]; rat, intravenous): low values for AUC
SMILES: CC(=O)Nc1ccc(O[C@H]2O[C@H](COC(=O)C(C)C)[C@@H](O)[C@H](O)[C@@H]2O)cc1 [Compound 19, 1-(4′-acetamidophenoxy)-6-O-isobutyrylmannose]

stability in solution (in words) [2]: showing a lot of instability
SMILES: CC(=O)Nc1ccc(O[C@@H]2CC[C@H](O)[C@@H](CO)O2)cc1 [Compound 12, 1-(4′-acetamidophenoxy) 2,3-dideoxy glucose]

half-life ([1]; rat, intravenous): < 1 h
half-life of the pro-drug (in words) ([1]; rat, intravenous): relatively high half-lives
change in 1H NMR spectra [2]: no change
SMILES: CC(=O)Nc1ccc(O[C@H]2O[C@H](CO)[C@@H](O)[C@H](O)[C@@H]2O)cc1 [Compound 8, N-(4-((2R,3S,4S,5S,6R)-3,4,5-trihydroxy-6-(hydroxymethyl)tetrahydro-2H-pyran-2-yloxy)phenyl)acetamide]

half-life ([1]; rat, intravenous): < 1 h
AUC of the pro-drug (in words) ([1]; rat, intravenous): low values for AUC
SMILES: CC(=O)Nc1ccc(O[C@H]2O[C@H](COC(C)=O)[C@@H](O)[C@H](O)[C@@H]2O)cc1 [Compound 15]
AUC of acetaminophen released by the pro-drug (in words) ([1]; rat, intravenous, Table 5): largest AUC value of all of the pro-drugs
overall characteristics (water solubility, release of acetaminophen, AUC) ([1]; summary statement): best combination of water solubility, quick release of the acetaminophen, and AUC

half-life ([1]; rat, intravenous): < 1 h
AUC of the pro-drug (in words) ([1]; rat, intravenous): low values for AUC
SMILES: CCCC(=O)OC[C@H]1O[C@H](Oc2ccc(NC(C)=O)cc2)[C@@H](O)[C@@H](O)[C@@H]1O [Compound 18, 1-(4′-acetamidophenoxy)-6-O-butyrylmannose]
